Assay [1] concerns the target Ubiquitin carboxyl-terminal hydrolase BAP1 (Homo sapiens, UniProt Q92560). Kind of assay: inhibition of BAP1 ubiquitin hydrolase activity – biochemical, dose response (AID 714). Type of assay: functional.
Assay [2] in a line: HPDE-C7 pancreatic duct cell viability loss – fluorescence, HTS (AID 430). It is filed as functional, cell-based. The conditions noted are these: Homo sapiens.
The nature of assay [3]: viability loss of HPDE-C7K cells – cell-based, fluorescence, HTS, primary screen (AID 431). Type of assay: functional. The conditions noted are these: Homo sapiens.
The nature of assay [4]: Luminescent dose response cell-based high throughput screening assay for inhibitors of the Janus kinase 2 mutant JAK2V617F. [Related pubchem assays: 1446 (Primary screen.), 1521 (Confirmation assay.), 1486 (Counter screen.)]. Type of assay: functional.
The target in the next assay is Large T antigen (Simian virus 40, UniProt P03070). It is filed as functional, Betapolyomavirus macacae.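 Also: Confirmatory-stage PubChem screen for compounds that inhibit SV40 T antigen.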
Large T antigen, sequence (P03070 whole entry): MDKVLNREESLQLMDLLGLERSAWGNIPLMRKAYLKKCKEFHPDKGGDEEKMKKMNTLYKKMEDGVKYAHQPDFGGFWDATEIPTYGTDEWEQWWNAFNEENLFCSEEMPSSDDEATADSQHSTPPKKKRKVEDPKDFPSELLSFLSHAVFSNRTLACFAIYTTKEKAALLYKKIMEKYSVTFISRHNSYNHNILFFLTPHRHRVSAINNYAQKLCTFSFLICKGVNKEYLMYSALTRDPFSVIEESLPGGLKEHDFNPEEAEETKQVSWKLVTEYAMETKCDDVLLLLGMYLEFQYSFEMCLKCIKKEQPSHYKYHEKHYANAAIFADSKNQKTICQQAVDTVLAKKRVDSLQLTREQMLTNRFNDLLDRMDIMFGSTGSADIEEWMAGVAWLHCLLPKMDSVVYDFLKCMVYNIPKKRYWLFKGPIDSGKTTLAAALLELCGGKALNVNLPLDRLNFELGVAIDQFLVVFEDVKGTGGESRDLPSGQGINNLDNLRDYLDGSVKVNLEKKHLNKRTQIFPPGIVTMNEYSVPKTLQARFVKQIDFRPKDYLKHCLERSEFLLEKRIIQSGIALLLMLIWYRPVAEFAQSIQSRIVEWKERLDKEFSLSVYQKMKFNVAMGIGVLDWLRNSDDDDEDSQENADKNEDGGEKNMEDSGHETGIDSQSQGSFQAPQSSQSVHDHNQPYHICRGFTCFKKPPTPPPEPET
Assay [5] concerns the target Voltage-gated inwardly rectifying potassium channel KCNH2 (Homo sapiens, UniProt Q12809). The conditions noted are these: Potency.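 Also: confirmatory quantitative high-throughput screen measuring inhibition of hERG channel activity.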
Assay [6] is described as follows: Luminescence Cell-Based Dose Response to Identify Activators of 5'UTR Stem-Loop Driven Prion Protein mRNA Translation in H4-C Neuroglioblastoma Cells. [Related pubchem assays: 1829 (Project Summary), 1814 (Primary HTS)]. It is filed as functional.
Assay [7] is described as follows: Luminescence Cell-Based Dose Response HTS to Identify Activators of Luciferase Translation or Activity in H4 […] Cells. [Related pubchem assays: 1829 (Project Summary), 1814 (Primary HTS)]. Type of assay: functional.
The test system of a further assay is H4. Briefly: Luminescence Cell-Based Dose Response HTS to Identify Activators of 5'UTR Stem-Loop Driven Prion Protein mRNA Translation in H4 Neuroglioblastoma Cells. [Related pubchem assays: 1829 (Project Summary), 1814 (Primary HTS)]. The conditions noted are these: Homo sapiens. Type of assay: functional.
The nature of assay [8]: Luminescence Cell-Based Dose Response to Identify Activators of Luciferase Translation or Activity in H4-C Neuroglioblastoma Cells. [Related pubchem assays: 1829 (Project Summary), 1814 (Primary HTS)]. It is filed as functional.
The nature of assay [9]: Luminescence Cell-Based Dose Confirmation to Identify Activators of 5'UTR Stem-Loop Driven Alpha-Synuclein mRNA Translation in H4 Neuroglioblastoma Cells. [Related pubchem assays: 1829 (Project Summary), 1814 (Primary HTS)]. It is filed as functional.
Assay [10] concerns the target T1, Oxysterols receptor LXR-beta (Homo sapiens, UniProt P55055).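 Also: agonist activity at LXR measured by a cell-based luminescence readout across a dose range, run as a counterscreen for daf-12 agonists; HEK293 cells with Gal4-LXR fusion and GAL4-driven luciferase reporter; potency for activation of Gal4-LXR reporter so compounds are agonists.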
T1 sequence (P55055 whole entry): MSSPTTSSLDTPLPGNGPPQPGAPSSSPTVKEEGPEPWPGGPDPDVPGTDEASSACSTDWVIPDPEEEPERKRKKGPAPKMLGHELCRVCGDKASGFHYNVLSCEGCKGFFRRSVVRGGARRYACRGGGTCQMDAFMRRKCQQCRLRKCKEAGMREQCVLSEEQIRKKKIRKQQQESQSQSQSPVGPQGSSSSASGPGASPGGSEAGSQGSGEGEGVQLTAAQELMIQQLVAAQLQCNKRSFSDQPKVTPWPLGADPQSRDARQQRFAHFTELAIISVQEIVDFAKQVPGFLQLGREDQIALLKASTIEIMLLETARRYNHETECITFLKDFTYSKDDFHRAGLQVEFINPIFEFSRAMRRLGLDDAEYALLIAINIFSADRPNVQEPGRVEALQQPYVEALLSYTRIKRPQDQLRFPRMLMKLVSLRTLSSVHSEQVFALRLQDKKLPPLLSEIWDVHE
It is filed as functional, cell-based.

Assay [11] concerns the target Neuropeptide Y receptor type 1 (Homo sapiens, UniProt P25929). It is filed as functional.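 Also: HEK293 cells with a CNG channel challenged with NPY then isoproterenol; potency as antagonist that reverses NPY suppression of cAMP signal.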
Assay [12] addresses Neuropeptide Y receptor type 2 (Homo sapiens, UniProt P49146). It is filed as functional, cell-based.
Assay [13] deals with T2, Mucolipin-3 (Homo sapiens, UniProt Q8TDD5).
T2 sequence (Q8TDD5 whole entry): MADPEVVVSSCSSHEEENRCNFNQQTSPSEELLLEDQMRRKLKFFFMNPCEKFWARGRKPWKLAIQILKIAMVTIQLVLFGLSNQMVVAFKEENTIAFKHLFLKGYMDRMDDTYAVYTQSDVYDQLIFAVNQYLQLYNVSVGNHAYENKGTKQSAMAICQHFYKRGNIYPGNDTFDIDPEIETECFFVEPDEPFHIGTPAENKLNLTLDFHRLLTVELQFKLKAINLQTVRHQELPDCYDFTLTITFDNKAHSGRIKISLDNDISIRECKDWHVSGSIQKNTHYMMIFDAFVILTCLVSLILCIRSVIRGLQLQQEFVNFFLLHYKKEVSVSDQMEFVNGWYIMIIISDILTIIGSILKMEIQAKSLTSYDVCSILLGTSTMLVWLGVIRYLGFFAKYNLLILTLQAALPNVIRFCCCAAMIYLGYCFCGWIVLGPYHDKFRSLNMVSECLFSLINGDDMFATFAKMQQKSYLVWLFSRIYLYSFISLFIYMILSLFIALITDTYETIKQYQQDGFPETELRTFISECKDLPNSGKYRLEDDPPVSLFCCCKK
Kind of assay: human mucolipin-3 activators, concentration-response – cell-based, calcium fluorescence, dose response (AID 2510). Type of assay: functional.

Assay [14] concerns the target T2, Mucolipin-3. Briefly: Dose response cell-based high-throughput screening assay for agonists of the transient receptor potential channel ML3 (TRPML3). [Related pubchem assays: 1526, 1424, 1448 ]. It is filed as functional.
In assay [15] the target is T3, Ion channel NompC (Danio rerio, UniProt Q7T1G6). Kind of assay: Late stage counterscreen for the probe development effort to identify selective agonists of the Transient Receptor Potential Channels 3 (TRPML3): fluorescence-based cell-based dose response assay for TRPN1 agonists. Type of assay: functional. In general terms: The purpose of a counterscreen is to sort out artefacts and off-target activity.
T3 sequence (Q7T1G6 whole entry): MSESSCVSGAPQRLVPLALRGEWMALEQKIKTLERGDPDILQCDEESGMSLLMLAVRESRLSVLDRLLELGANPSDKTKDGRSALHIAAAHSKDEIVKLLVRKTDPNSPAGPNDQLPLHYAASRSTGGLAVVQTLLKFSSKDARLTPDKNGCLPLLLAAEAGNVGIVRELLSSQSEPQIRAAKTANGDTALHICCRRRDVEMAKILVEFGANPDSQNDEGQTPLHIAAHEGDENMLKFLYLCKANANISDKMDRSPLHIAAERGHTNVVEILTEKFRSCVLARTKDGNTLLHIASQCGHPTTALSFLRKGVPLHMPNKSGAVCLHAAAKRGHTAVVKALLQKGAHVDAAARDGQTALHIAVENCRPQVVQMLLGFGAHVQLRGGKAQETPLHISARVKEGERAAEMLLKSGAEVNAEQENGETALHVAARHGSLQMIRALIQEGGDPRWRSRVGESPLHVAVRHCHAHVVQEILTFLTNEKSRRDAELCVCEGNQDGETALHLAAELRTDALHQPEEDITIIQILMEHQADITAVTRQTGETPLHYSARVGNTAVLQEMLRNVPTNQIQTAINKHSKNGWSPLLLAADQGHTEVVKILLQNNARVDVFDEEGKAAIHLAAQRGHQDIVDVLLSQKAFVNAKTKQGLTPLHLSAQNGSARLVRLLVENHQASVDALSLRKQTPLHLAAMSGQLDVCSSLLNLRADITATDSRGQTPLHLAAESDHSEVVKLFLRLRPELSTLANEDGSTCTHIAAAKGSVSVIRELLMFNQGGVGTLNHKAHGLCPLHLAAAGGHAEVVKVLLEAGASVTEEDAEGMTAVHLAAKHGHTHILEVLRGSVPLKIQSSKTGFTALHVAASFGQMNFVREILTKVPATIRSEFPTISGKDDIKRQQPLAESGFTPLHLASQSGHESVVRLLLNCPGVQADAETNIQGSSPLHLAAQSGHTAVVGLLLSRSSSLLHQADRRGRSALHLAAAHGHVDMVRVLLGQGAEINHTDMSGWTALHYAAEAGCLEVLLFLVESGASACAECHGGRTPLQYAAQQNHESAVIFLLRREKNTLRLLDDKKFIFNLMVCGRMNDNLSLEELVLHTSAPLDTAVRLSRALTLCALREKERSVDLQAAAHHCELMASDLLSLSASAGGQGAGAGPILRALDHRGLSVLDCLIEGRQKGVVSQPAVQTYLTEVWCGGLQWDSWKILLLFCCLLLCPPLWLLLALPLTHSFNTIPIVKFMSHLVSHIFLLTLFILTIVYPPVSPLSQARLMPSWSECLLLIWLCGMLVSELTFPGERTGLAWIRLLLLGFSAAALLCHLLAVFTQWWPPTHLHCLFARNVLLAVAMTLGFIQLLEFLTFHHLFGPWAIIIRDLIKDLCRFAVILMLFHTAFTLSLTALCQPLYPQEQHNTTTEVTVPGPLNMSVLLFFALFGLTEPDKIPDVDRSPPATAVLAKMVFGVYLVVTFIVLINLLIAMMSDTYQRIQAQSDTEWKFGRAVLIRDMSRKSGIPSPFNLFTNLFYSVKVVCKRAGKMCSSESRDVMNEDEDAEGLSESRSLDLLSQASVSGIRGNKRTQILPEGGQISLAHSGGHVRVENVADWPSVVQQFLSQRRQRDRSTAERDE

The target of assay [16] is T3, Ion channel NompC. Briefly: Fluorescence counterscreen assay for TRPML3 agonists: dose response cell-based high-throughput screening assay to identify agonists of the transient receptor potential channel N1 (TRPN1). [Related pubchem assays: 1526, 1424, 1448 ]. Type of assay: functional.

This passage reports IC50, EC50 and AC50 results from ChEMBL document CHEMBL1201862, “PubChem BioAssay data set” (2004).

Activity calls are given as the source filed them.

Neuropeptide Y receptor type 1, sequence (P25929 whole entry): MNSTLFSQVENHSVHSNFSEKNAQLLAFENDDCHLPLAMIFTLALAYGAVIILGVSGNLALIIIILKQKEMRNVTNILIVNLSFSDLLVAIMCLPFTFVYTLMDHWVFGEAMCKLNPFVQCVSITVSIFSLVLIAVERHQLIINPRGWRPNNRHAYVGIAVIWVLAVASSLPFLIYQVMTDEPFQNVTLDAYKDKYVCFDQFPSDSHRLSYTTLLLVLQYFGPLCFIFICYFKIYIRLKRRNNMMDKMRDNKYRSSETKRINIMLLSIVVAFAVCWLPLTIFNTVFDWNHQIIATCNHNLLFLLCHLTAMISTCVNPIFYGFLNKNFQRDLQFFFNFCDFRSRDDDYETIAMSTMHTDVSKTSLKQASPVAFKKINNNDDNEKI
Neuropeptide Y receptor type 2, sequence (P49146 whole entry): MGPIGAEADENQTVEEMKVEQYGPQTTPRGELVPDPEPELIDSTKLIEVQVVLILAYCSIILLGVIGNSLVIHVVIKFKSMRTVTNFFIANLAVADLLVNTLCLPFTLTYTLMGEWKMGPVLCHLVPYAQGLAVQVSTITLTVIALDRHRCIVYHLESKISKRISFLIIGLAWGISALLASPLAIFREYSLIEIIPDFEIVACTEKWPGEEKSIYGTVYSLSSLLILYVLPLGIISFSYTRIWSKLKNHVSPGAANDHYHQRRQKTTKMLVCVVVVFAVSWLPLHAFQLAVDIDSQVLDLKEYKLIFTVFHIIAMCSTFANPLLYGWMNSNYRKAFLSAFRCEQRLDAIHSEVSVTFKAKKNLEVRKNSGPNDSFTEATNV
Ubiquitin carboxyl-terminal hydrolase BAP1, sequence (Q92560 whole entry): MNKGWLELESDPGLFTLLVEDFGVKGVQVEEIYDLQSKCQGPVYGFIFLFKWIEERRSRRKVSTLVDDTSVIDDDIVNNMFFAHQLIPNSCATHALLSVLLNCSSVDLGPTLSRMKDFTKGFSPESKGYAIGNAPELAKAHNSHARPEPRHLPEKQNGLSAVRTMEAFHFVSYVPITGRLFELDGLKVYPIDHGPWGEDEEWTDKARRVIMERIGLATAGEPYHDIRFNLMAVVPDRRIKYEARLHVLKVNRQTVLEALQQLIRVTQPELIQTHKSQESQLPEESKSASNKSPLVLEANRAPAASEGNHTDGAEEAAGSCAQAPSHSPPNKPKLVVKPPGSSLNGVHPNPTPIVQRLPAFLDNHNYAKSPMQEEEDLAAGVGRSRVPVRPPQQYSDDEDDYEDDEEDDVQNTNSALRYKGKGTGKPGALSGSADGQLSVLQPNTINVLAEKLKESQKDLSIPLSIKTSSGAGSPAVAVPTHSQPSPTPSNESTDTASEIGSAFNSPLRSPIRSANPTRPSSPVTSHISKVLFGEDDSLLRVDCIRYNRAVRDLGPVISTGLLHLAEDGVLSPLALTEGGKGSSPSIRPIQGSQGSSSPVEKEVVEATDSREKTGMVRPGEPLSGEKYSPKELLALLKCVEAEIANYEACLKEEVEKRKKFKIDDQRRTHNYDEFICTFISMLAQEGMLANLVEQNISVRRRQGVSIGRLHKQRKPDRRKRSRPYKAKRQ
Voltage-gated inwardly rectifying potassium channel KCNH2, sequence (Q12809 whole entry): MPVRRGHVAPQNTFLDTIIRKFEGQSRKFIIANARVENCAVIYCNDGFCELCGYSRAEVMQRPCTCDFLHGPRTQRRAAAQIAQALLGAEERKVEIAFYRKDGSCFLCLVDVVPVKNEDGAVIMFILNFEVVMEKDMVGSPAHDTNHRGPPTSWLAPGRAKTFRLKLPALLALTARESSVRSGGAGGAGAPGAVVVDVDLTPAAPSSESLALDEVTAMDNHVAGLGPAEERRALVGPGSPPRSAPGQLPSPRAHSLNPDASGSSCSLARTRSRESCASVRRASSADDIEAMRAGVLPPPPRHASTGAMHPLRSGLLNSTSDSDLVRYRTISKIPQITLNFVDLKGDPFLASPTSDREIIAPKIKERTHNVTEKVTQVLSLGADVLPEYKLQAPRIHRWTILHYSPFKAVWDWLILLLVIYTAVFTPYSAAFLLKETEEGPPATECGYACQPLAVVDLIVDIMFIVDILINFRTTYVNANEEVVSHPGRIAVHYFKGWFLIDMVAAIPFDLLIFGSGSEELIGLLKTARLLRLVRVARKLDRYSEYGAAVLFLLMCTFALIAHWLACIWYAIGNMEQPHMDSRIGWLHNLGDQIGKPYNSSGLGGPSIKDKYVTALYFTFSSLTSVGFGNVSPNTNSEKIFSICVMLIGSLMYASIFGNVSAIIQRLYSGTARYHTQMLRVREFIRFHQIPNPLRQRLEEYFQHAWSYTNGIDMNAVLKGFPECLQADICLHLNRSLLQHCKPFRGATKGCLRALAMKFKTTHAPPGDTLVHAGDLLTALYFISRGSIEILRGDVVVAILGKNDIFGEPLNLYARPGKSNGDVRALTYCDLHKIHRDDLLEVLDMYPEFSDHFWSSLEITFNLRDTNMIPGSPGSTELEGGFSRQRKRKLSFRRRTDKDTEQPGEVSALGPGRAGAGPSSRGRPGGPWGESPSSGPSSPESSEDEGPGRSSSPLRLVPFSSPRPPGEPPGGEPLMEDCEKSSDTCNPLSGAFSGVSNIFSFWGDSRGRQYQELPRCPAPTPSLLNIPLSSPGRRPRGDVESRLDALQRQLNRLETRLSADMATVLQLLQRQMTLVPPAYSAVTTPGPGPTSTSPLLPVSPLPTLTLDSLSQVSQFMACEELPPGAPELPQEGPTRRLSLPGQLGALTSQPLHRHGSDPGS

Broadly, the IC50 is the concentration needed to halve the response being measured. For orientation: EC50 means the concentration at which the effect is half-maximal. As for `Cc1sc(NC(=O)CSc2nnc3scc(-c4ccccc4)n23)c(C#N)c1C`, the IC50 in [1] was > 50 µM (not active). Also, the results for the EC50 in [2] and in assay [3] were 8.93 µM (active) and 8.96 µM (active), respectively.
Broadly, the AC50 is the midpoint of the concentration-response curve, whichever way the signal moves. As for `N#C/C(=C\c1ccc(O)c(O)c1)C(=O)NCCCc1ccccc1`, the IC50 in [4] was 1.7 µM (active); at Large T antigen it was 21 µM (active). Also, the AC50 in assay [5] was 15.8 µM (inconclusive).
As for `CCOC(=O)c1c[nH]nc1N=C(S)Nc1ccccc1`, the EC50 was 0.352 µM (active) in [6]; < 0.1 µM (active) in assay [7]; > 120 µM (not active) with H4; 0.324 µM (active) in assay [8]; 0.38 µM (active) in assay [9]; > 67.6 µM (inactive) in assay [10].
Consider `Cc1ccc(NC(S)=NCc2ccc3c(c2)OCO3)cc1C`, for which the results for the IC50 in [11] and in assay [12] were 9.96 µM (active) and 10 µM (not active), respectively.
With `Cc1ccc(S(=O)(=O)n2nccc2-c2c(-c3ccc(Cl)cc3)noc2C)cc1`, the EC50 on Mucolipin-3 [13] is 0.253 µM (active); on Mucolipin-3 [14], 0.325 µM (active); on Ion channel NompC [15], > 29.9 µM (not active); at Ion channel NompC [16] it was > 29.9 µM (not active).
